Where “and” joins values, the source holds several entries; their conditions need not be identical. Equal entries are not always repeated.
What was measured:
[1] = test system: proliferation of B10.PL (H-2u) responder cells to PL/J stimulator cells; experiment: Mixed lymphocyte reaction (MLR) across minor histocompatibility barriers; assay type: cell-based, mice; conditions: 20 μg/well, Cop 1 Batch I, 1:1 ratio of responder to stimulator cells
Protocol: Responder cells for MLR reactions across major histocompatibility barriers were harvested from spleen of non-immunized mice while responder cells for MLR across minor histocompatibility barriers were harvested from mice which were preimmunized with irradiated (30 Gy) 50×10^6 stimulator spleen cells 21 days before. Responder cells (5×10^5 spleen cells per well) were tested for their proliferative response by plating with different amounts (2.5 to 10×10^5) of irradiated stimulator cells, in presence or absence of various peptide inhibitors (10–100 μg per well). Cultures were set up in 200 μl media containing 10% FCS in flat-bottom microtiter plates. After 4 days of incubation, cultures were pulsed with 1 μCi of [^3H]thymidine for an additional 16 hours. Results are represented as mean counts per minute (cpm) thymidine incorporation from triplicate cultures.
To investigate the feasibility of inhibition of MLR by Copolymer 1, an MLR system was developed in which Copolymer 1 was tested for its ability to inhibit the proliferation of B10.PL (H-2^u) responder cells to stimulator cells of either the same (PL/J) or different (BALB/c) H-2 haplotype. For comparison, the inhibitory MBP Ac 1-11[4A], MBP 35-47, a combination of Ac 1-1[4A]+MBP 35-47, MBP 89-101 and KM-core peptides, described in Schlegel et al. (1994), were used in the MLR experiments.
The inhibition obtained by Copolymer 1 was similar (in response to minor histocompatibility antigen) or even higher (in response to major histocompatibility antigen) than the inhibition obtained with the combination of the two synthetic peptides Ac 1-11[4A] and MBP 35-47, which specifically bind to the class II molecules I-A^u and the I-E^u, respectively. The molar efficiency of Copolymer 1 of M.W. 6000 is even higher since the molecular weight of the synthetic peptides is 4–5 fold lower.

[2] = test system: GVHD in B10.D2 → BALB/c recipients; experiment: Murine lethal GVHD model after bone marrow transplantation, B10.D2/nSnJ→BALB/c; assay type: in vivo, mice; conditions: for overall incidence of GVHD: 600 μg per injection (ip + sc)
Protocol: The murine GVHD model of B10.D2/nSnJ→BALB/c mice (both H-2^d) across minor histocompatibility barriers, was selected since it is similar to the MHC matched bone marrow transplantation in humans. For the induction of GVHD, 10×10^6 bone marrow and 100×10^6 spleen cells from B10.D2 mice were injected into lethally irradiated (8.0 Gy) BALB/c recipients. […] Recipient mice were 12–13 weeks at the time of transplantation.
Based on previous studies with Cop 1 in EAE (Sela et al., 1990; Teitelbaum et al., 1971; Teitelbaum et al., 1973) and class II-binding competitor peptides in GVHD (Schlegel et al., 1994), the dosage of 600 μg per injection was selected, half of which was administered intraperitoneally (ip), whereas the other half was given subcutaneously (sc). Treatment of BALB/c recipient mice was initiated on day −1, followed by daily injections for the first five weeks starting on day 0 after transplantation. The frequency of injections was tapered to three times per week for the subsequent two weeks and to two times per week for another two weeks and then discontinued. Throughout the experiment, copolymers and controls were administered once a week with incomplete Freund's adjuvant (IFA) ip as a depot dose (Schlegel et al., 1994). Treatment was discontinued 9 weeks after transplantation.
Mice were followed up daily for 140 days after bone marrow transplantation for signs of GVHD. Disease severity was assessed by mortality, loss of body weight, and by the extent of macroscopic skin involvement scored on a cumulative scale (from min O— max 8): head 1, neck 1, back (1/3, 2/3, 3/3) 1–3, front (1/3, 2/3, 3/3) 1–3. Skin biopsies were examined as previously described (Schlegel et al., 1994).
(ii) Effect of Copolymer 1 Treatment on the Incidence, Onset and Severity of GVHD. […] For the first five weeks after transplant mice were injected daily as outlined in Materials and Methods, followed by a tapering schedule over an additional four weeks.
(iii) Effect of Copolymer 1 treatment on survival. […]

[3] = test system: skin graft rejection; experiment: Skin graft transplantation model for HVGD; assay type: in vivo, mice
Protocol: Recipient mice were dorsally transplanted with circular pieces of donor skin. Mice were inspected daily. Grafts were considered rejected when no viable donor epidermis remained. The results are expressed in mean survival time (MST). P values were obtained by analysis of variance (ANOVA).
[…] The first Cop 1 treatment on day −7 was injected sc in ICFA as a depot dose. Control mice were treated daily with PBS alone and PBS with ICFA on day −7 before transplantation.
Grafts were inspected daily. Rejection was considered positive when no viable donor epidermis remained. […]

[4] = test system: B10.D2 responder spleen cells with irradiated C57BL/6 spleen stimulator cells; experiment: MLR primary assay, Table 1; assay type: cell-based, mice; conditions: [3H]-thymidine after 96 hours
Protocol: The effect of Copolymer 1 (Batch I) on mixed lymphocyte cultures across major histocompatibility barriers was tested. T cell proliferation was assessed in six different MHC-disparate strain combinations. […] To exclude the possibility that higher concentrations of Copolymer 1 (50–100 μg/well) might be toxic to the responder cells, responder cells from background well and from wells incubated with 25–100 μg/well of Copolymer 1 in the presence of stimulator cells for 72 hours in a primary assay, were rechallenged in a subsequent secondary assay with IL-2 (5,000 U/well).

Glatiramer acetate [Cop 1] was tested, and the “inhibition of MLR” value [1] was 63%, the “long-term survival from lethal graft-versus-host disease” value ([2]; 600 μg per injection) was “improved long-term survival” and the “animals (without GVHD) to the observation period of 140 days after transplant” value ([2]; 600 μg per injection, Batch I) was “Nine of 25”. The “mice survived more than 140 days after transplant” value ([2]; 600 μg per injection, Batch I) was 56%, the “overall disease severity (disease severity score, mean body weight curves)” value ([2]; 600 μg per injection, Batch I) was “improved overall disease severity” and the “overall incidence of GVHD” value ([2]; day 30 after transplant, Cop 1 Batch I) was 12%. The “overall incidence of GVHD” value ([2]; day 70 after transplant, Cop 1 Batch I) was 48%, the “median onset of GVHD” value ([2]; days after transplant, 600 μg per injection) was 73 days and the “onset of GVHD, range” value ([2]; days after transplant, in 12/25 treated animals, 600 μg per injection) was 32 to 112 days. The “mice survived more than 140 days after transplant” value ([2]; survivors/treated, 600 μg per injection, Cop 1 Batch I) was 14/25, the “MST ± SD (Mean Survival Time of skin graft)” value (from here on “MST ± SD”) ([3]; B10.D2 → BALB/c, H-2d, Cop 1 600 μg/day (ip+sc) from day −7) was 20.6 days and 20.6 ± 3.3 days and the “MST ± SD” value ([3]; B10.D2 → BALB/c, H-2d, Cop 1 600 μg/day (ip+sc) from day −7, listed as Copolymer 1) was 20.6 days. The “mean graft survival time (MST)” value ([3]; B10.D2 → BALB/c, 600 μg/day, text refers to Table 6, PBS 26 days) was 34 days, the “MST ± SD” value ([3]; B10.D2 → BALB/c, Cop 1 300 μg/day) was 20.4 ± 4.5 days and the “MST ± SD” value ([3]; B10.D2 → BALB/c, Cop 1 300 μg/day, listed as Copolymer 1) was 20.4 days. The “MST ± SD” value ([3]; B10PL → PL/J, H-2u, Cop 1 600 μg/day) was 17.6 ± 5.1, the “MST ± SD” value ([3]; C57BL → C3HSW, H-2b → H-2d, Cop 1 600 μg/day) was 18.5 ± 3.3 and the “MST ± SD” value ([3]; Haplotype H-2b, Cop 1 600 μg/day) was 17.7 ± 2.1. For the same substance, the “Primary Assay cpm” value ([4]; Cop 1 25 μg/well (Batch I)) was 15,953 cpm, the “Primary Assay cpm” value ([4]; Cop 1 50 μg/well (Batch I)) was 3,663 cpm and the “Primary Assay cpm” value ([4]; Cop 1 100 μg/well (Batch I)) was 283 cpm.

— patent publication US7053043B1, “Pharmaceutical compositions comprising synthetic peptide copolymers and methods for preventing and treating GVHD and HVGD” (Yeda Research and Development Co.Ltd., priority 1999, dated 2006)
